From article PMC3974779, “Pterostilbene-Isothiocyanate Conjugate Suppresses Growth of Prostate Cancer Cells Irrespective of Androgen Receptor Status” (PLoS ONE, 2014)

Assays:
hAR in PC-3 cells = target: T1, hAR in PC-3 cells (Homo sapiens, UniProt P10275); test: AR transactivation luciferase assay (pSG5-hAR + pMMTV-luc); assay type: cell-based; details: 10 nM DHT
T1 construct: full length hAR in pSG5 expression vector; expressed in transfected cells; host or cells: PC-3 (AR-negative)
T1 sequence (P10275 1-920): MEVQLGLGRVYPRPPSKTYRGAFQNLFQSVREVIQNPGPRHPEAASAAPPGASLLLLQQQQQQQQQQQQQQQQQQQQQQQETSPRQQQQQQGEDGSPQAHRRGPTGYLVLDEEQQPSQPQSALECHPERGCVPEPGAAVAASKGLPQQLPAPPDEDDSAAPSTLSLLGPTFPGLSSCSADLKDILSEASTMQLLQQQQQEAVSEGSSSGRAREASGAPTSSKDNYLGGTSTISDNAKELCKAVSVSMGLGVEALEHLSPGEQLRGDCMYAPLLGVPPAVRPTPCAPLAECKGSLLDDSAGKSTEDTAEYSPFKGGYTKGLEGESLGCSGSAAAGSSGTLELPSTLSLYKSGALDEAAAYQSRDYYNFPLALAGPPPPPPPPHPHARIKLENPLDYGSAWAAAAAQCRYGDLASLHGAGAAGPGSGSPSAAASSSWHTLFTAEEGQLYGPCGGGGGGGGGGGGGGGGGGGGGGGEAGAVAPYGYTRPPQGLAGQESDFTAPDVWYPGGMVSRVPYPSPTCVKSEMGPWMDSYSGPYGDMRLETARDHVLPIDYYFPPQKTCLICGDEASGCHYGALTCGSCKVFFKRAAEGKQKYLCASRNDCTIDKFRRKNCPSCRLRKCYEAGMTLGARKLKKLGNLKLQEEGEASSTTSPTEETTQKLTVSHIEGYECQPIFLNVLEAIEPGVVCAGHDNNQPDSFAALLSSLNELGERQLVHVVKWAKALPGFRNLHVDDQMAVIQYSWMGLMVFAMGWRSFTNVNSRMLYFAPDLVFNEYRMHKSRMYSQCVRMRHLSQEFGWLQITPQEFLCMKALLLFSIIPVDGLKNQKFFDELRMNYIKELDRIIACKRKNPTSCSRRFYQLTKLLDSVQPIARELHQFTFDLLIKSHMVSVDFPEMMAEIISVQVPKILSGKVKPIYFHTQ
Method: The LNCaP cells were grown and transiently transfected with pMMTV-neomycin-luciferase plasmid (300 ng/10^5 cells) in RPMI media supplemented with 10% FBS using polyfect transfection reagent (Qiagen, CA, USA) according to manufacturer’s instructions. Then, 24 h after transfection, the cell culture media were changed with media containing 5% charcoal-stripped FBS to reduce the contaminating steroids from the serum and incubated for an additional day before initiating the treatments. In case of PC-3 cells, they were similarly transfected, but in addition to pMMTV-neomycin-luciferase construct, they were also transfected with pSG5-hAR-puro plasmid (full length hAR in pSG5 expression vector) in the ratio of 5∶1 as indicated above. For experiments involving co-regulators, 50 ng of co-activator plasmids (25 ng each of GRIP-1 and SRC-1) along with pMMTV-neo-luc (250 ng) were transfected to LNCaP cells. To evaluate the transfection efficiency, 500 ng/105 cells of the SV40 promoter-Renilla luciferase (pRL-SV40) vector (Promega Madison, USA) were co-transfected as internal control. […] Each experimental point was performed in triplicate and varied by less than 10%. The values of luciferase for each lysates were normalized to the Renilla luciferase activity.

AR in LNCaP cells = test: Immunofluorescence staining of endogenous AR; assay type: cell-based, human; details: varying doses of conjugate, 20 μM RESV, DHT
Method: The cells were then incubated with AR rabbit polyclonal antibody diluted 1∶200 in blocking buffer for 1 h at RT. Finally, the cells were washed with PBS and incubated with FITC-labelled anti-rabbit secondary antibody diluted 1∶1000 in blocking buffer for 30 min at room temperature. The cells were then observed under a fluorescence microscope (Zeiss, Axiovert 25, Germany).

[1] = test system: AR gene expression in LNCaP cells; test: RT-PCR of AR expression; assay type: cell-based, human; details: for reduction of DHT induced AR transcription: 10 nM DHT
Method: Total RNA was extracted from the treated cells using RNA isolation kit obtained from Genei (Bangalore, India). The extracted RNA samples were then quantified and equal amount of the individual treatments was transcribed with the help of an RT - PCR kit from Genei (Bangalore, India) according to the manufacturer’s instruction. PCR was performed by denaturing at 94°C for 60 s, annealing at various temperatures (depending on primer pairs used) for 45 s and extension at 72°C for 2 min followed by the number of cycles for amplification. Primers for Bcl-2, Bcl-xL, Bax, AR and β-Actin were designed with the help of Primer 3 software and standardized in the laboratory. The PCR products were then separated on 2% agarose gel and visualized in a gel documentation system (Bio Rad, USA). The intensity of the bands on agarose gels were analyzed using ImageJ 1.43 software (NIH, USA) and normalized with respect to β-actin PCR products. Each of the RT-PCR was carried out three times. Table S1 presents the primer sequence, product size, annealing temperature, and number of cycles used for all primers.

## COc1cc(/C=C/c2ccc(O)c(/C=N/NC(N)=S)c2)cc(OC)c1 [conjugate, Pterostilbene-isothiocyanate conjugate]
hAR in PC-3 cells; PC-3, 5 μM
  reduction of DHT-mediated luciferase activity: 19%
hAR in PC-3 cells; PC-3, 10 μM
  reduction of DHT-mediated luciferase activity: 31%
hAR in PC-3 cells; PC-3, 20 μM
  reduction of DHT-mediated luciferase activity: 63%
hAR in PC-3 cells; PC-3, 30 μM
  reduction of DHT-mediated luciferase activity: 70%
hAR in PC-3 cells; PC-3, 40 μM
  reduction of DHT-mediated luciferase activity: 80%
AR in LNCaP cells
  AR immunofluorescence intensity: almost complete abolition of fluorescent intensity
[1]; 10 μM
  reduction of DHT induced AR transcription: about 1.2 fold
[1]; 20 μM
  reduction of DHT induced AR transcription: ~1.3 fold
[1]; 40 μM
  reduction of DHT induced AR transcription: ~1.4 fold
[1]; below 40 μM, absence of 10 nM DHT, RT-PCR
  effect on expression of AR gene: no significant effects
